Test systems include NCI-H226 lung; SF-539 CNS; SK-MEL-5 melanoma; CAKI-1 renal; U251 CNS; SNB-19 CNS; HCC-2998 colon; MDA-MB-435; SNB-75 CNS; IGROV1 ovarian.
What all share (assay): NCI tumour cell line growth inhibition, 48 h

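Exposure lasted 48 hours, with cells grown in 96-well plates and compounds tested at five concentrations. Here, GI50 denotes the concentration required for 50% inhibition of growth. TGI: total growth inhibition.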

As for `CS(=O)(=O)c1ccc(Nc2nc(N[C@H]3CCCC[C@H]3N)nc3cc[nH]c(=O)c23)cc1`, the GI50 was 2.67 µM with NCI-H226 lung; 2.24 µM in the assay on SF-539 CNS; 1.53 µM in the assay with SK-MEL-5 melanoma; 11.7 µM with CAKI-1 renal; 0.664 µM in the assay with U251 CNS; 0.714 µM with SNB-19 CNS. Besides, the figures for the GI50 with HCC-2998 colon, in the assay on MDA-MB-435 and with SNB-75 CNS were 1.52 µM, 1.3 µM and 1.29 µM, respectively. Also, the TGI was 19 µM in the assay with NCI-H226 lung; 7.09 µM in the assay on SF-539 CNS; 3.25 µM with SK-MEL-5 melanoma; 36.3 µM in the assay on CAKI-1 renal; 21.1 µM in the assay with U251 CNS; 28.3 µM with SNB-19 CNS. Also, the results for the TGI in the assay on HCC-2998 colon, in the assay with MDA-MB-435 and with SNB-75 CNS were 4.49 µM, 3.7 µM and 3.51 µM, respectively.
Regarding `CC(C)OC(=S)Nc1ccc(Cl)c(/C=N/OC(C)(C)C)c1`, the TGI in the assay with IGROV1 ovarian came out at 36.6 µM; in the assay on NCI-H226 lung it was 34.2 µM; with SF-539 CNS, 31.7 µM; in the assay with SK-MEL-5 melanoma, 31.8 µM; in the assay on CAKI-1 renal, 32.8 µM; with U251 CNS it was 31.7 µM. The TGI was 44.2 µM in the assay with SNB-19 CNS, 41.4 µM with HCC-2998 colon, 32.3 µM with MDA-MB-435 and 54.7 µM in the assay with SNB-75 CNS.
On to `Cc1cc(C)c(C#N)c(Sc2nc(C)c([N+](=O)[O-])c(C)c2C#N)n1`, for which the GI50 in the assay on IGROV1 ovarian was 3.3 µM; in the assay with NCI-H226 lung, 2.99 µM; with SF-539 CNS it was 2.43 µM; in the assay with SK-MEL-5 melanoma it was 4.02 µM; with CAKI-1 renal it was 2.17 µM; in the assay on U251 CNS, 3.1 µM. The GI50 was 15.1 µM in the assay with SNB-19 CNS, 4.66 µM with HCC-2998 colon, 2.1 µM in the assay with MDA-MB-435 and 3.29 µM in the assay with SNB-75 CNS. Moreover, the TGI in the assay on IGROV1 ovarian was determined as 12.3 µM; in the assay with NCI-H226 lung, 10.5 µM; in the assay on SF-539 CNS, 6 µM; in the assay on SK-MEL-5 melanoma it was 16.4 µM; in the assay on CAKI-1 renal, 5.65 µM; in the assay with U251 CNS, 10.8 µM. Further, the TGI in the assay on SNB-19 CNS was determined as 88 µM; in the assay with HCC-2998 colon, 15.8 µM; in the assay on MDA-MB-435, 4.75 µM; in the assay on SNB-75 CNS, 21.8 µM.
Turning to `COC(=O)c1c(-c2cccs2)oc(-c2cccs2)c1C(=O)OC`, the GI50 in the assay on IGROV1 ovarian is 36.2 µM; in the assay on NCI-H226 lung, 38.2 µM; in the assay with SF-539 CNS, 84.4 µM; in the assay on CAKI-1 renal, 26.7 µM; with U251 CNS, 59.6 µM; in the assay with SNB-19 CNS, > 100 µM. For the same compound, the GI50 with HCC-2998 colon was 36.2 µM; in the assay on MDA-MB-435, 26 µM; with SNB-75 CNS it was > 73.6 µM. Moreover, the TGI with IGROV1 ovarian was > 100 µM; in the assay on NCI-H226 lung it was 98.3 µM; with SF-539 CNS it was > 100 µM; in the assay with CAKI-1 renal it was 69.3 µM; in the assay with U251 CNS, > 100 µM; in the assay with SNB-19 CNS, > 100 µM. The TGI in the assay with HCC-2998 colon was > 82.8 µM; with MDA-MB-435 it was 87 µM; in the assay on SNB-75 CNS it was > 100 µM.
Take `N#CC1=C(N)Oc2c(ccc3ccccc23)C1c1cc(=O)oc2ccc(Cl)cc12` (stereo not drawn): the GI50 is 0.873 µM in the assay on IGROV1 ovarian; 26 µM in the assay with NCI-H226 lung; 0.486 µM with SF-539 CNS; 0.484 µM in the assay with SK-MEL-5 melanoma; 0.535 µM in the assay on U251 CNS; 0.651 µM in the assay on SNB-19 CNS. In addition, the figures for the GI50 in the assay with HCC-2998 colon, with MDA-MB-435 and in the assay on SNB-75 CNS were 2.72 µM, 0.244 µM and 2.16 µM, respectively. Besides, the TGI was > 100 µM in the assay on IGROV1 ovarian; 81.6 µM in the assay on NCI-H226 lung; 5.57 µM in the assay with SF-539 CNS; 14.4 µM in the assay with SK-MEL-5 melanoma; 20.2 µM with U251 CNS; > 100 µM in the assay on SNB-19 CNS. The results for the TGI in the assay on HCC-2998 colon, in the assay with MDA-MB-435 and with SNB-75 CNS were 19.5 µM, 0.947 µM and > 100 µM, respectively.
For the compound `C#C[C@@]1(O)[C@@H](CO)O[C@@H](n2cc(I)c3c(N)ncnc32)[C@@H]1O`, the GI50 is 1.72 µM in the assay with NCI-H226 lung; 0.378 µM in the assay with SF-539 CNS; 0.209 µM with SK-MEL-5 melanoma; 0.0734 µM in the assay on U251 CNS; 0.0996 µM in the assay with SNB-19 CNS; 0.243 µM in the assay on HCC-2998 colon. Also, the GI50 was 0.473 µM in the assay with MDA-MB-435 and 0.457 µM in the assay with SNB-75 CNS. Also, the TGI in the assay on NCI-H226 lung was > 100 µM; in the assay on SF-539 CNS, 2.55 µM; in the assay with SK-MEL-5 melanoma it was 3.3 µM; in the assay with U251 CNS, > 32 µM; in the assay with SNB-19 CNS, > 50 µM; in the assay with HCC-2998 colon it was 3.01 µM. For the same compound, the TGI with MDA-MB-435 amounted to 12.8 µM; in the assay with SNB-75 CNS, 1.99 µM.
Turning to `O=C1CSC(c2ccccc2Cl)N1c1nnc(Cn2cnnc2)o1` (stereo not drawn), the GI50 in the assay with IGROV1 ovarian was 17 µM; in the assay on NCI-H226 lung it was 17.3 µM; with SF-539 CNS, 13.6 µM; with SK-MEL-5 melanoma, 7.81 µM; with CAKI-1 renal it was 11.4 µM; with U251 CNS it was 4.58 µM. Further, the GI50 in the assay with HCC-2998 colon was 12.3 µM; in the assay with MDA-MB-435, 2.2 µM; in the assay on SNB-75 CNS, 3.19 µM. The TGI in the assay with IGROV1 ovarian was > 100 µM; in the assay on NCI-H226 lung it was 36.1 µM; in the assay with SF-539 CNS, 35.2 µM; in the assay with SK-MEL-5 melanoma, 21.2 µM; in the assay on CAKI-1 renal, > 100 µM; in the assay with U251 CNS, 18.9 µM. Also, the figures for the TGI in the assay with HCC-2998 colon, in the assay on MDA-MB-435 and with SNB-75 CNS were 27.2 µM, 5.96 µM and 41.8 µM, respectively.

These data come from PubChem BioAssay (NCI).
